This note sets out measurements from paper PMC6332508, “A Promising PET Tracer for Imaging of α7 Nicotinic Acetylcholine Receptors in the Brain: Design, Synthesis, and in Vivo Evaluation of a Dibenzothiophene-Based Radioligand” (Molecules, 2015).

One data set has as its target T1, α7 nAChR (Macaca mulatta, UniProt Q866A2).
T1 construct: from tissue; host or cells: brain of a living rhesus monkey
Put plainly: Comparative PET study in a rhesus monkey. The data set is classed as in vivo, rhesus monkey (Macaca mulatta). The method, then:
One male rhesus monkey (Macaca mulatta, 6 years old, body weight = 10 kg) underwent two PET imaging sessions with [^18F]10a and [^18F]10b, respectively. The scans were conducted 19 days apart. The monkey was initially sedated by intramuscular ketamine at 10 mg∙kg^−1 at ~2 h before the PET scan and anesthetized by 1.5%–3% isoflurane throughout the imaging session. PET scan was performed using a FOCUS-220 PET scanner (Siemens Preclinical Solutions, Knoxville, TN, USA). After a transmission scan, 167 MBq of [^18F]10a (specific activity of 362 GBq∙μmol^−1) or 185 MBq of [^18F]10b (specific activity of 159 GBq·μmol^−1) were administered intravenously. Emission data were acquired in list mode for 240 min. Raw list-mode PET data was histogrammed (frames of 6 × 30 s; 3 × 1 min; 2 × 2 min; 46 × 5 min to scan termination) and reconstructed with 2D filtered back projection, using a 0.15 cm^−1 Shepp filter and including corrections for scanner normalization, detector dead time, randoms, and radiation scatter and attenuation. The PET images were then registered to MR images, acquired with a Siemens 3 T Trio scanner, with a 6-parameter rigid body registration. The MR native space was then normalized using nonlinear affine registration to a high-resolution rhesus monkey atlas using BioImage Suite 3.01 (http://www.bioimagesuite.org/index.html). Time-activity curves were extracted by mapping atlas-defined regions to PET native space using the optimal transformation matrices calculated in the registration and normalization steps. Regions extracted included amygdala, caudate, cerebellum, cingulate, cortical regions (frontal, occipital, and temporal cortex), hippocampus, putamen, thalamus, and pons.

The nature of data set [1]: Distribution coefficient, shake-flask method, n-octanol/PBS. The data set is classed as physicochemical. The note with it: n-octanol/phosphate-buffered saline; n-octanol-PBS, pH 7.2, shake-flask, n = 3; read-out: log D7.2. The method, then: (§1) in vitro radiochemical stability of [^18F]10a was investigated in 0.9% NaCl solution, PBS (pH 7.2), and 0.01 M Tris-HCl (pH 7.4 at 21 °C) at 40 °C and in EtOH at room temperature for up to 90 min. Samples were taken at 15, 30, 60, and 90 min of incubation time and analyzed by radio-TLC and radio-HPLC. Log D7.2 of [^18F]10a was experimentally determined in n-octanol/phosphate-buffered saline (PBS; 0.01 M, pH 7.2) at room temperature by the shake-flask method in multiple distribution. Measurement was performed twice in triplicate.

Data set [2] in a line: In vitro radiochemical stability. The note with it: 40 °C, up to 90 min. In kind it is physicochemical. Here is the method: as §1

T1 sequence (Q866A2 23-502): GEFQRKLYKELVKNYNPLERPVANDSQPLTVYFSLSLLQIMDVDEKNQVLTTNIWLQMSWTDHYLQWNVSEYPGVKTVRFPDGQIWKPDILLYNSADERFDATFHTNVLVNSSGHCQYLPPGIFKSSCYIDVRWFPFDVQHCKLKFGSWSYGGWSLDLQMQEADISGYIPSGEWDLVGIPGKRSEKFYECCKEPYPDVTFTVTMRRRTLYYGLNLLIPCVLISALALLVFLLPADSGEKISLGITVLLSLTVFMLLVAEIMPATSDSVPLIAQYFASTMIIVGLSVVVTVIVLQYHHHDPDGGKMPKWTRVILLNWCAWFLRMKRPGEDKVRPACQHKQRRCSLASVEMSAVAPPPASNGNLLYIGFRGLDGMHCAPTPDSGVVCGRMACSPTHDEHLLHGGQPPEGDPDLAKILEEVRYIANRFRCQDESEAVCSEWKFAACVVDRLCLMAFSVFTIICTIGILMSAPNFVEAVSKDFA

For the molecule `O=S1(=O)c2ccc([18F])cc2-c2ccc(N3CCN4CCC3CC4)cc21` [[^18F]10a], the “total volume of distribution VT” value was found to be 28.5 mL∙cm^−3 at α7 nAChR (cerebellum) and 48.1 mL∙cm^−3 at α7 nAChR (thalamus). Also, the logD in data set [1] stood at 1.3 ± 0.1. Besides, in data set [2], the “stability in physiological solutions and organic solvents” value is reported as “stable”.
